Broadly, the IC50 is the concentration at which inhibition is half-maximal.

Among the data in patent US12371404B2, “Fused bicyclic alkylene linked imidodicarbonimidic diamides, methods for synthesis, and uses in therapy” (NovaTarg, Inc., priority 2016, dated 2025) are IC50 and inhibition values, retold here.

Structures can show the parent of a compound that is named as a salt. Some results are limits rather than exact numbers.

The target of one experiment is T1, human MATE1 (Homo sapiens, UniProt Q96FL8).
T1 sequence (Q96FL8 1-570): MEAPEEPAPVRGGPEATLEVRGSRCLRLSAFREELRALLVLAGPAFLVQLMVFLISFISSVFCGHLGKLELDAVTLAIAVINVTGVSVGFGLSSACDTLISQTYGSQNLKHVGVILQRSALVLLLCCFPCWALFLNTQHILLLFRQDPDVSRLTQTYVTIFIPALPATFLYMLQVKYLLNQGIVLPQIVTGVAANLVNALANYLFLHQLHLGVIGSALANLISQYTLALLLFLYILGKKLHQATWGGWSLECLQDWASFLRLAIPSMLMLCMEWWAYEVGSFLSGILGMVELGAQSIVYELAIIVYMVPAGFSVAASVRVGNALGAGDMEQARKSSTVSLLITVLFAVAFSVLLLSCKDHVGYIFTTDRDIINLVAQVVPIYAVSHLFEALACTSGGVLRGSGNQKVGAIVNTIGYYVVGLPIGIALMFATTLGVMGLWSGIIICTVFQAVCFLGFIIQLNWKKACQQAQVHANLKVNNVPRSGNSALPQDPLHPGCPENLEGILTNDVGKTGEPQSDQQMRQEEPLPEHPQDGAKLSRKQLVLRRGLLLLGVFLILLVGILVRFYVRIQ
Nature of the experiment: Oxygen consumption rate (OCR) assay, HEK293 cells transfected with MATE1. Particulars: for inhibition at 1000 µM: HEK293, read-out: Oxygen Consumption Rate (OCR), MATE 1, % Inhibition at 1000 μM test concentration. An excerpt:
The compounds of the present invention are similarly tested in an oxygen consumption rate (OCR) assay to evaluate the functional activity of test compounds in cells.
(§1) In brief, the assay uses HEK293 cells stably transfected with the human OCT1, OCT2, OCT3, PMAT, or MATE1 transporters to determine a compound's relative transporter selectivity and its effect on the rate of oxygen consumption relative to control (Neo) cells. The MitoXpress Xtra oxygen-sensitive fluorophore is used to monitor oxygen consumption rates in the presence and absence of compound treatments. The analogs were tested at eight (8) different concentrations in triplicate to determine a relative IC50 value.
(§2) A summary description of the protocol is as follows:
(§3) Cells were incubated overnight to allow attachment. The outer columns (1 and 12) are not seeded with cells, as controls. The next day, plating medium was removed and replaced with 150 μL of assay medium (DMEM/F12 (PRF), 5% FBS, antibiotics) containing compound dilutions. A 3-fold serial dilution was prepared in the assay medium and transferred to the empty wells. The outer columns and column 11 received 150 μL of assay medium only. 10 μL of MitoXpress Xtra reagent was added to each test well, and 100 μL of pre-warmed mineral oil was overlayed in each well to create a seal. Dual read time-resolved fluorescence (BMG FluoStar Galaxy reader) was measured over 2 hours with measurements taken every 2 minutes. Excitation is 340 nm, Emission is 650 nm. For lifetime analysis, two measurements per well were taken: 1) delay of 30 μs, with a window of 30 μs; and 2) delay of 70 μs with a window of 30 μs. Background TRF values from A1-D1 were subtracted from all readings. A ratiometric analysis was performed to determine changes in the Lifetime fluorescence signal:Lifetime (μs) [T]=(D2−D1)/ln(W1/W2), where D is delay; W is fluorescence window value at each time point. Lifetime slopes were calculated using each Lifetime measurement over time. IC50 values were determined by plotting lifetime slope values vs. compound concentration.

For a further experiment, the system named is control (Neo) cells. Nature of the experiment: Oxygen consumption rate (OCR) assay, control (Neo) HEK293 cells. The class given is cell-based. The settings on record: Homo sapiens; control (Neo) HEK293 cells; MitoXpress Xtra, 2 hours; read-out: Oxygen Consumption Rate (OCR) IC50, Neo.
Text: Diabetologia 2011, 54 (12): 3101-3110, each incorporated by reference with regard to such testing. The compounds of the present invention are similarly tested in an oxygen consumption rate (OCR) assay to evaluate the functional activity of test compounds in cells.
as §1, §2
as §3, with “HEK293 cells transformed with human organic cation transporters were plated in collagen coated, 96-well black-walled microclear plates (Greiner-Bio 1, #655956) at 60,000 cells per well in growth medium (DMEM (LG), 10% FBS, 400 μg/ml G418). Cells” for “Cells”

For the compound `Cn1cc(CCNC(=N)NC(=N)N)c2cccnc21` [Ex 39, 1-(2-(1-methyl-1H-pyrrolo[2,3-b]pyridin-3-yl)ethyl)imidodicarbonimide diamide, trifluoroacetic acid salt], the IC50 is 168 µM against human MATE1 and 205 µM in the experiment with control (Neo) cells. For `CN(CCc1c[nH]c2cc(F)ccc12)C(=N)NC(=N)N` [Ex 65, 1-methyl-1-[2-(6-fluoro-1H-indol-3-yl)ethyl]imidodicarbonimide diamide, trifluoroacetic acid salt] the same measures were 354 µM and 8410 µM. On the same counts, the results for `N=C(N)NC(=N)NCCc1c[nH]c2nccc(Cl)c12` [Ex 46, 1-(2-(4-chloro-1H-pyrrolo[2,3-b]pyridin-3-yl)ethyl)imidodicarbonimide diamide, trifluoroacetic acid salt] are 335 µM and 2640 µM.

Turning to `N=C(N)NC(=N)NCCc1c[nH]c2cc(F)cc(F)c12` [Ex 61, 1-[2-(4,6-difluoro-1H-indol-3-yl)ethyl]imidodicarbonimide diamide, trifluoroacetic acid salt], the IC50 on human MATE1 is 62 µM; with control (Neo) cells, 333 µM. For `CN(C)C(=N)NC(=N)NCCc1c[nH]c2ccc(Cl)cc12` [Ex 53, 3-(2-(5-chloro-1H-indol-3-yl)ethyl)-1,1-dimethyl imidodicarbonimide diamide trifluoroacetic acid salt] the same measures were 398 µM and 422 µM. For `Cc1cccc2[nH]cc(CCNC(=N)NC(=N)N)c12` [Ex 60, 1-[2-(4-methyl-1H-indol-3-yl)ethyl]imidodicarbonimide diamide, trifluoroacetic acid salt] the same measures were 636 µM and 1640 µM. In the case of `COc1ccc2[nH]c(C)c(CCNC(=N)NC(=N)N)c2c1` [Ex 19, 1-[2-(5-methoxy-2-methyl-1H-indol-3-yl)ethyl]imidodicarbonimide diamide, trifluoroacetic acid salt], at human MATE1, the inhibition at 1000 µM turned out to be 14%. For the same compound, the 50% inhibitory concentration (IC50) in the experiment on control (Neo) cells was above 3000 µM.

As for `N=C(N)NC(=N)NCCc1cn(CCO)c2ccccc12` [Ex 13, 1-[2-(1-(2-hydroxyethyl)-1H-indol-3-yl)ethyl]imidodicarbonimide diamide trifluoroacetic acid salt], the inhibition at 1000 µM at human MATE1 stood at 22%. Further, in the experiment on control (Neo) cells, the IC50 came out at 2520 µM.

Take `N=C(N)NC(=N)NCCc1c[nH]c2ncccc12` [Ex 20, 1-(2-(1H-pyrrolo[2,3-b]pyridin-3-yl)ethyl)imidodicarbonimide diamide hydrochloride]: in the experiment with control (Neo) cells, the 50% inhibitory concentration (IC50) was determined as 605 µM.

Regarding `Cn1cc(CCNC(=N)NC(=N)N)c2ccc(F)cc21` [Ex 52, 1-[2-(6-fluoro-1-methyl-1H-indol-3-yl)ethyl]imidodicarbonimide diamide, trifluoroacetic acid salt], the IC50 at human MATE1 is 32 µM; in the experiment on control (Neo) cells, 388 µM.

Consider `CC(CNC(=N)NC(=N)N)c1c[nH]c2cc(F)ccc12` (centres unmarked) [Ex 62, 1-[2-(6-fluoro-1H-indol-3-yl)propyl]imidodicarbonimide diamide, trifluoroacetic acid salt], for which the half-inhibitory concentration (IC50) on human MATE1 and with control (Neo) cells was 3430 µM throughout.

Turning to `N=C(N)NC(=N)NCCc1c[nH]c2ccc(F)c(Cl)c12` [Ex 47, 1-[2-(4-chloro-5-fluoro-1H-indol-3-yl)ethyl]imidodicarbonimide diamide, trifluoroacetic acid salt], the concentration for half-maximal inhibition (IC50) against human MATE1 stood at 22 µM; in the experiment with control (Neo) cells, 101 µM.

As to `CC(C)(CNC(=N)NC(=N)N)c1c[nH]c2cc(F)ccc12` [Ex 63, 1-[2-(6-fluoro-1H-indol-3-yl)-2-methylpropyl]imidodicarbonimide diamide, trifluoroacetic acid salt], the half-inhibitory concentration (IC50) was 3790 µM against human MATE1 and 1750 µM in the experiment with control (Neo) cells. On the same counts, the results for `N=C(N)NC(=N)NCCc1c[nH]c2c(F)c(Cl)ccc12` [Ex 51, 1-[2-(6-chloro-7-fluoro-1H-indol-3-yl)ethyl]imidodicarbonimide diamide, trifluoroacetic acid salt] are 597 µM and 542 µM. On the same counts, the results for `CN(C)C(=N)NC(=N)NCCc1c[nH]c2nc(F)ccc12` [Ex. 54, 3-(2-(6-fluoro-1H-pyrrolo[2,3-b]pyridin-3-yl)ethyl)-1,1-dimethyl imidodicarbonimide diamide trifluoroacetic acid salt] are 4950 µM and 4600 µM. Regarding `N=C(N)NC(=N)NCCc1c[nH]c2ncc(Cl)cc12` [Ex 40, 1-(2-(5-chloro-1H-pyrrolo[2,3-b]pyridin-3-yl)ethyl)imidodicarbonimide diamide, trifluoroacetic acid salt], the 50% inhibitory concentration (IC50) was 1470 µM against human MATE1 and above 1000 µM with control (Neo) cells. Take `N=C(N)NC(=N)NCCc1c[nH]c2ccc(OCCO)cc12` [Ex 15, 1-(2-(5-(2-hydroxyethoxy)-1H-indol-3-yl)ethyl)imidodicarbonimide diamide trifluoroacetic acid salt]: the inhibition at 1000 µM on human MATE1 was -17%. The IC50 in the experiment on control (Neo) cells was above 10000 µM. Take `CN(C)C(=N)NC(=N)NCCc1c[nH]c2ccc(F)cc12` [Ex 24, 3-(2-(5-fluoro-1H-indol-3-yl)ethyl)-1,1-dimethyl imidodicarbonimide diamide hydrochloride]: the IC50 at human MATE1 is above 10000 µM; with control (Neo) cells it was 1590 µM. Consider `Cc1[nH]c2ccc(F)cc2c1CCNC(=N)NC(=N)N` [Ex 29, 1-[2-(5-fluoro-2-methyl-1H-indol-3-yl)ethyl]imidodicarbonimide diamide, trifluoroacetic acid salt], for which the IC50 in the experiment on control (Neo) cells is above 100 µM.

Regarding `N=C(N)NC(=N)NCCc1c[nH]c2ccc(Cl)c(F)c12` [Ex 49, 1-[2-(5-chloro-4-fluoro-1H-indol-3-yl)ethyl]imidodicarbonimide diamide, trifluoroacetic acid salt], the values for the IC50 on human MATE1 and with control (Neo) cells were 64 µM and 155 µM, respectively. `N=C(N)NC(=N)NCCc1c[nH]c2c(F)cc(F)cc12` [Ex 27, 1-[2-(5,7-difluoro-1H-indol-3-yl)ethyl]imidodicarbonimide diamide, trifluoroacetic acid salt]: in the experiment on control (Neo) cells, the half-maximal inhibitory concentration (IC50) was determined as 291 µM. Still for that read-out and setting: under `CN(C)C(=N)NC(=N)NCCc1c[nH]c2ncccc12` [Ex 30, 1-(2-(1H-pyrrolo[2,3-b]pyridin-3-yl)ethyl)-1,1-dimethyl imidodicarbonimide diamide trifluoroacetic acid salt] stands 864 µM; under `N=C(N)NC(=N)NCCc1c[nH]c2cc(F)c(F)cc12` [Ex 28, 1-[2-(5,6-difluoro-1H-indol-3-yl)ethyl]imidodicarbonimide diamide, trifluoroacetic acid salt], 604 µM.
